Tests used:
[1] = tested on: pancreatic cancer PDX tumors; test: Radiotherapy study in pancreatic cancer PDX-bearing mice (tumor growth); type: in vivo; conditions: 1.85 MBq or 3.7 MBq, vs saline or 3.7 MBq ^177Lu-FAPI-04
Protocol: (§1) ^68Ga-FAPI-04 PET imaging was performed to evaluate the tumor volume, and the mice were treated when their average tumor volume reached 35 mm^3. The PDX-bearing mice (6 groups, 7–9 mice per group) were treated by saline, 3.7 MBq of ^177Lu-FAPI-04, 1.85 MBq of ^177Lu-TEFAPI-06, 3.7 MBq of ^177Lu-TEFAPI-06, 1.85 MBq of ^177Lu-TEFAPI-07, or […] of ^177Lu-TEFAPI-07. Tumor volume and body weight were monitored every 2 or 3 d, and the animals were euthanized when the tumor volume exceeded 1,000 mm^3. Histopathologic staining was performed with an antihuman FAP monoclonal antibody (ab207178; Abcam), and hematoxylin and eosin staining was performed as previously described ([29]).

[2] = Radiotherapy study: body weight and hematoxylin and eosin staining of main organs; type: in vivo; conditions: pancreatic cancer PDX-bearing mice after treatment
Protocol: as §1

[3] = Ex vivo biodistribution study in PDX-bearing mice
Protocol: PDX-bearing mice were injected with 925.0 kBq of ^177Lu-TEFAPI-06 or ^177Lu-TEFAPI-07 for an ex vivo biodistribution study. The mice were killed at 24 h and 96 h after injection, the counts of the different organs were measured with a γ-counter, and the data were normalized to percentage injected dose (%ID)/g using 1% of total counts.

[4] = Stability in vitro in saline and human serum (radio-HPLC); type: in vitro ADME; conditions: 7 d
Protocol: The radiolabeling of ^68Ga, ^86Y, and ^177Lu was performed by incubation with 50 nmol of precursor at pH 4.5–5.0 at 90°C for 10 min. The product was purified by C18 column extraction, and the radiochemical purity was determined by high-performance liquid chromatography equipped with a radioactivity detector. The stability of ^177Lu-TEFAPI-06 and ^177Lu-TEFAPI-07 in saline and human serum was monitored from 2 to 168 h using radio–high-performance liquid chromatography ([13]). More details about the radiochemistry, the quality control testing, and the stability assay can be found in the supplemental materials (section 3).

[5] = tested on: pancreatic cancer PDX tumors; test: SPECT imaging in pancreatic cancer PDX-bearing mice; type: in vivo
Protocol: SPECT scans were performed on a Mediso nanoSPECT/CT imaging system. ^177Lu-TEFAPI-06 or ^177Lu-TEFAPI-07 SPECT imaging was performed on pancreatic cancer PDX–bearing mice at the indicated time points after intravenous injection of 37 MBq of ^177Lu-TEFAPI-06 or ^177Lu-TEFAPI-07, respectively.

Cc1cc(-c2ccc(NC(=O)CCCC(=O)N[C@@H](CCCCNC(=O)CN3CCN(CC(=O)[O-])CCN(CC(=O)[O-])CCN(CC(=O)[O-])CC3)C(=O)N3CCN(CCCOc4ccc5nccc(C(=O)NCC(=O)N6CC(F)(F)C[C@H]6C#N)c5c4)CC3)c(C)c2)ccc1N=Nc1ccc2c(S(=O)(=O)O)cc(S(=O)(=O)O)c(N)c2c1O.[177Lu+3] [^177Lu-TEFAPI-07]
tumor growth after treatment [1]: remarkable suppression of tumor growth
side effects, hematoxylin and eosin staining of the main organs [2]: almost negligible
Blood uptake ([3]; 24 h after injection): 5.64 %ID/g
Bone uptake ([3]; 24 h after injection): 1.71 %ID/g
Brain uptake ([3]; 24 h after injection): 0.23 %ID/g
Fat uptake ([3]; 24 h after injection): 1.82 %ID/g
Heart uptake ([3]; 24 h after injection): 2.53 %ID/g
Kidney uptake ([3]; 24 h after injection): 8.67 %ID/g
Large intestine uptake ([3]; 24 h after injection): 1.15 %ID/g
Liver uptake ([3]; 24 h after injection): 3.21 %ID/g
Lung uptake ([3]; 24 h after injection): 2.58 %ID/g
Muscle uptake ([3]; 24 h after injection): 1.00 %ID/g
Pancreas uptake ([3]; 24 h after injection): 2.16 %ID/g
Small intestine uptake ([3]; 24 h after injection): 1.19 %ID/g
Spleen uptake ([3]; 24 h after injection): 2.69 %ID/g
Stomach uptake ([3]; 24 h after injection): 1.20 %ID/g
Tumor uptake ([3]; 24 h after injection): 7.87 %ID/g
tumor-to-liver ratio ([3]; 24 h after injection): 2.45
Blood uptake ([3]; 96 h after injection): 0.51 %ID/g
Bone uptake ([3]; 96 h after injection): 0.18 %ID/g
Fat uptake ([3]; 96 h after injection): 0.48 %ID/g
Heart uptake ([3]; 96 h after injection): 0.62 %ID/g
Kidney uptake ([3]; 96 h after injection): 10.16 %ID/g
Large intestine uptake ([3]; 96 h after injection): 0.10 %ID/g
Liver uptake ([3]; 96 h after injection): 2.31 %ID/g
Lung uptake ([3]; 96 h after injection): 0.73 %ID/g
Muscle uptake ([3]; 96 h after injection): 0.28 %ID/g
Pancreas uptake ([3]; 96 h after injection): 0.53 %ID/g
Small intestine uptake ([3]; 96 h after injection): 0.16 %ID/g
Spleen uptake ([3]; 96 h after injection): 1.88 %ID/g
Stomach uptake ([3]; 96 h after injection): 0.29 %ID/g
Tumor uptake ([3]; 96 h after injection): 7.57 %ID/g
tumor-to-liver ratio ([3]; 96 h after injection): 3.28
radiochemistry purity after incubation in human serum ([4]; human serum): over 90%
radiochemistry purity after incubation in saline ([4]; saline): over 90%
tumor uptake at 6 d after injection (SPECT imaging and biodistribution) ([5]; 6 d after the injection): still notable
tumor-to-nontargeted-tissue signal ratios on SPECT ([5]; PDX tumor models, until 144 h after injection): high
